The test system of one data set is PC-3. Put plainly: Cytotoxicity against human PC-3 cells assessed as inhibition of cell growth incubated for 48 hrs by MTT assay. The data set is classed as functional, cell-based. The note with it: PC-3, 48 h. (Formazan colour is commonly taken as a measure of viable cells.)
For data set [1], the system named is HepG2. The experiment in a line: Cytotoxicity against human HepG2 cells assessed as inhibition of cell growth incubated for 48 hrs by MTT assay. It counts as functional, cell-based. The note with it: HepG2, 48 h.
For data set [2], the system named is MCF7. The experiment in a line: Cytotoxicity against human MCF7 cells assessed as inhibition of cell growth incubated for 48 hrs by MTT assay. The data set is classed as functional, cell-based. Particulars: MCF7, 48 h.
Data set [3] has as its system HCT-116. Put plainly: Cytotoxicity against human HCT-116 cells assessed as inhibition of cell growth incubated for 48 hrs by MTT assay. The note with it: HCT-116, 48 h. The data set is classed as functional, cell-based.
The target of data set [4] is T1, Vascular endothelial growth factor receptor 2 (Homo sapiens, UniProt P35968). The experiment in a line: Inhibition of VEGFR2 (unknown origin).
Data set [5] deals with T1, Vascular endothelial growth factor receptor 2. The experiment in a line: Inhibition of VEGFR2 (unknown origin) by kinase profiling assay.
Data set [6] is described as follows: Cytotoxicity against HUVEC cells assessed as cell growth inhibition incubated for 72 hrs by MTT assay. The data set is classed as toxicity, cell-based. Particulars: human.
For data set [7], the target named is T1, Vascular endothelial growth factor receptor 2. Put plainly: Inhibition of human VEGFR2 by discoverX kinome scan assay.
The test system of data set [8] is MCF7. The experiment in a line: Antiproliferative activity against human MCF7 cells assessed as cell growth inhibition measured for 24 hrs by MTT assay. The data set is classed as functional, cell-based. Particulars: MCF7, 24 h.
The target in the next data set is Histone deacetylase 4 (Homo sapiens, UniProt P56524). The experiment in a line: Inhibition of HDAC4 (unknown origin).
For data set [9], the target named is T1, Vascular endothelial growth factor receptor 2. Put plainly: Inhibition of human recombinant VEGFR2 using biotinylated poly-GluTyr (4:1) as susbtrate measured for 1 hr by ELISA method. In general terms: In an ELISA, binding on a coated surface is turned into a signal by an enzyme label.
The test system of data set [10] is MCF7. Put plainly: Cytotoxicity against human MCF7 cells assessed as reduction in cell viability measured after 72 hrs by MTT assay. The data set is classed as functional, cell-based. Particulars: MCF7, 72 h.
A short description of data set [11]: Cytotoxicity against African green monkey Vero cells assessed as inhibition of cell growth incubated for 24 hrs by MTT assay. The data set is classed as toxicity, cell-based, Chlorocebus sabaeus.
Data set [12] relates to HCT-116. Put plainly: Cytotoxicity against human HCT-116 cells assessed as reduction in cell viability measured after 72 hrs by MTT assay. Particulars: HCT-116, 72 h. The data set is classed as functional, cell-based.
For data set [13], the system named is HepG2. Put plainly: Cytotoxicity against human HepG2 cells assessed as reduction in cell viability measured after 72 hrs by MTT assay. It counts as functional, cell-based. Particulars: HepG2, 72 h.
For the next data set, the target named is Histone deacetylase 1 (Homo sapiens, UniProt Q13547). Put plainly: Inhibition of HDAC1 (unknown origin).
Data set [14] has as its target T2, Protein deacetylase HDAC6 (Homo sapiens, UniProt Q9UBN7).
T2 sequence (Q9UBN7 whole entry): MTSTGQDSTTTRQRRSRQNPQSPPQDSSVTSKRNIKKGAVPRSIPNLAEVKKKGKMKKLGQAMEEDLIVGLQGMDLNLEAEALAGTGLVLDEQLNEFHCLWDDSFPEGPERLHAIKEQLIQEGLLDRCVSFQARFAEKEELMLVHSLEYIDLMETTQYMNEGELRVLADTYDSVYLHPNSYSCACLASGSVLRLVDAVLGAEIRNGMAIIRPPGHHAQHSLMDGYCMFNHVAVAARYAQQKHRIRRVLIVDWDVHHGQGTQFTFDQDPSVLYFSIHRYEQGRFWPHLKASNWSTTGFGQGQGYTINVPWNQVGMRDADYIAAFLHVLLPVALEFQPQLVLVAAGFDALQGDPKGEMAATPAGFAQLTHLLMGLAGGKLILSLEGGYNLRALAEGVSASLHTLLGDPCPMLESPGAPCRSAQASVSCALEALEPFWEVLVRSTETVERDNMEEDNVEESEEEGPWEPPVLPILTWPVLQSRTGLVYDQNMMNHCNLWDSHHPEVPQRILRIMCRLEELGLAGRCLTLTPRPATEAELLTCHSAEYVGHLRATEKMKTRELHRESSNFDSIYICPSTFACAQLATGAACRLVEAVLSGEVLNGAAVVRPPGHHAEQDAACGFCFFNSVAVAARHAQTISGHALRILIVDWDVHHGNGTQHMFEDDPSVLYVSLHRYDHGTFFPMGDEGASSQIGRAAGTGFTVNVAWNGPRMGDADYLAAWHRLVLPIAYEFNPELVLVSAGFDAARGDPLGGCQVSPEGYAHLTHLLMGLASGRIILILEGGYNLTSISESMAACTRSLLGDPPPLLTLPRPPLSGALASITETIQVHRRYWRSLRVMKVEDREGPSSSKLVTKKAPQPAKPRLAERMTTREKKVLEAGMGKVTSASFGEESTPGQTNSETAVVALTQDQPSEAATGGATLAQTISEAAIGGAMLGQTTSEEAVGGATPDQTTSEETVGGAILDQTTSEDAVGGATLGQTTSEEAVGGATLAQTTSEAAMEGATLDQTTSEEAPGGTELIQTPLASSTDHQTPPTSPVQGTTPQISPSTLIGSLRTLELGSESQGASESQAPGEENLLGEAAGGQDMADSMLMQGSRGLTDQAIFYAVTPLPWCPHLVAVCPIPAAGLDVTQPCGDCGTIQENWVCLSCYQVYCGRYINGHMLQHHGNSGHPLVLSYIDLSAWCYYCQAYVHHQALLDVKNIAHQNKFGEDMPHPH
The experiment in a line: Inhibition of HDAC6 (unknown origin).

Data set [15] has as its target Vascular endothelial growth factor receptor 3 (Homo sapiens, UniProt P35916). The experiment in a line: Inhibition of VEGFR3 (unknown origin).
Data set [16] addresses Vascular endothelial growth factor receptor 1 (Homo sapiens, UniProt P17948). The experiment in a line: Inhibition of VEGFR1 (unknown origin).
In data set [17] the target is Serine/threonine-protein kinase B-raf (Homo sapiens, UniProt P15056, V600E). The experiment in a line: Inhibition of BRAF V600E mutant (unknown origin).
Data set [18] addresses RAF proto-oncogene serine/threonine-protein kinase (Homo sapiens, UniProt P04049). The experiment in a line: Inhibition of C-RAF (unknown origin).
Data set [19] can be described thus: Inhibition of VEGFR (unknown origin). More on the design: species or system Homo sapiens.
In data set [20] the target is T1, Vascular endothelial growth factor receptor 2. Put plainly: Inhibition of VEGFR2 (unknown origin) incubated for 1 hr in presence of ATP by ELISA method.
The subject of the next data set is A498. Put plainly: Cytotoxicity against human A498 cells assessed as reduction in cell viability incubated for 48 hrs by MTT assay. Particulars: A498, 48 h. It counts as functional, cell-based.
Another data set concerns CAKI-1. The experiment in a line: Cytotoxicity against human CAKI-1 cells assessed as reduction in cell growth incubated for 48 hrs by MTT assay. The note with it: CAKI-1, 48 h. The data set is classed as functional, cell-based.
The test system of data set [21] is HepG2. Put plainly: Antiproliferative activity against human HepG2 cells assessed as cell growth inhibition measured for 24 hrs by MTT assay. The data set is classed as functional, cell-based. The note with it: HepG2, 24 h.
The subject of a further data set is A549. Put plainly: Antiproliferative activity against human A549 cells assessed as cell growth inhibition measured for 24 hrs by MTT assay. It counts as functional, cell-based. Particulars: A549, 24 h.
Data set [22] deals with Epidermal growth factor receptor (Homo sapiens, UniProt P00533). Put plainly: Inhibition of EGFR (unknown origin) by DiscoverX KINOMEscan assay.

SMILES strings stand for the structures.

T1 sequence (P35968 whole entry): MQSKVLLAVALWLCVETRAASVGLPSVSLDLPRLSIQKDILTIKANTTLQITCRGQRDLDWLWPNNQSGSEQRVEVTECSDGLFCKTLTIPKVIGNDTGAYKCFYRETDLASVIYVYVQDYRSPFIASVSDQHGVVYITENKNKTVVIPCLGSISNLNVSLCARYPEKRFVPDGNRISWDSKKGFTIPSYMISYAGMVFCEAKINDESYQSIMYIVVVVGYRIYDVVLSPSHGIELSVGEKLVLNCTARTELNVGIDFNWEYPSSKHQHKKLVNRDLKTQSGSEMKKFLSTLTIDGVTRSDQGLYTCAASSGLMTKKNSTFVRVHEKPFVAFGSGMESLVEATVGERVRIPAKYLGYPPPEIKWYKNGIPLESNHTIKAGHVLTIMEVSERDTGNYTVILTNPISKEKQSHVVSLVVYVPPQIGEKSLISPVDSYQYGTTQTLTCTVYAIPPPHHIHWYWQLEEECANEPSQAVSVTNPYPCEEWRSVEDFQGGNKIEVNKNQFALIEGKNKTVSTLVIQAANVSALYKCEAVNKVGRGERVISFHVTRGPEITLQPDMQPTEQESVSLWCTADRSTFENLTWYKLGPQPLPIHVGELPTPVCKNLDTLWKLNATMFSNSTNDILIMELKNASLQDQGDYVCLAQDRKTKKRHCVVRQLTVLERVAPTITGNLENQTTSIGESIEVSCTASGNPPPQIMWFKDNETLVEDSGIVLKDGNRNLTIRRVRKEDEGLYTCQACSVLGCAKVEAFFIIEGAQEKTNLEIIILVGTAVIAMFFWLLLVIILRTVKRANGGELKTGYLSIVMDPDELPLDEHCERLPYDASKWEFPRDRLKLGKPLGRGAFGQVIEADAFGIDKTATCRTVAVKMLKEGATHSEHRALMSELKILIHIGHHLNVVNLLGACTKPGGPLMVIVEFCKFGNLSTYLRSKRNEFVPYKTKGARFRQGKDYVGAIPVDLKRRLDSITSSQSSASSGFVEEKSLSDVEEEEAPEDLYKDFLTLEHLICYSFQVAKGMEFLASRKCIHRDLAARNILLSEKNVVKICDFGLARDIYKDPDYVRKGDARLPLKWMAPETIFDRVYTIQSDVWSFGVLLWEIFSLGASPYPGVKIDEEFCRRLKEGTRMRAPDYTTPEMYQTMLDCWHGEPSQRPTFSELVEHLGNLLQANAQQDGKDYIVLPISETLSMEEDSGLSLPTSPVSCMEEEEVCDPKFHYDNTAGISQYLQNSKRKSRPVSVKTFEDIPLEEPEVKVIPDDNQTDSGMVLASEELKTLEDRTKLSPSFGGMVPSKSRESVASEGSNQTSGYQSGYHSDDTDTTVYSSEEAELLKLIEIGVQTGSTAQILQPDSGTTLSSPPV
Chain of Histone deacetylase 4 (P56524 whole entry): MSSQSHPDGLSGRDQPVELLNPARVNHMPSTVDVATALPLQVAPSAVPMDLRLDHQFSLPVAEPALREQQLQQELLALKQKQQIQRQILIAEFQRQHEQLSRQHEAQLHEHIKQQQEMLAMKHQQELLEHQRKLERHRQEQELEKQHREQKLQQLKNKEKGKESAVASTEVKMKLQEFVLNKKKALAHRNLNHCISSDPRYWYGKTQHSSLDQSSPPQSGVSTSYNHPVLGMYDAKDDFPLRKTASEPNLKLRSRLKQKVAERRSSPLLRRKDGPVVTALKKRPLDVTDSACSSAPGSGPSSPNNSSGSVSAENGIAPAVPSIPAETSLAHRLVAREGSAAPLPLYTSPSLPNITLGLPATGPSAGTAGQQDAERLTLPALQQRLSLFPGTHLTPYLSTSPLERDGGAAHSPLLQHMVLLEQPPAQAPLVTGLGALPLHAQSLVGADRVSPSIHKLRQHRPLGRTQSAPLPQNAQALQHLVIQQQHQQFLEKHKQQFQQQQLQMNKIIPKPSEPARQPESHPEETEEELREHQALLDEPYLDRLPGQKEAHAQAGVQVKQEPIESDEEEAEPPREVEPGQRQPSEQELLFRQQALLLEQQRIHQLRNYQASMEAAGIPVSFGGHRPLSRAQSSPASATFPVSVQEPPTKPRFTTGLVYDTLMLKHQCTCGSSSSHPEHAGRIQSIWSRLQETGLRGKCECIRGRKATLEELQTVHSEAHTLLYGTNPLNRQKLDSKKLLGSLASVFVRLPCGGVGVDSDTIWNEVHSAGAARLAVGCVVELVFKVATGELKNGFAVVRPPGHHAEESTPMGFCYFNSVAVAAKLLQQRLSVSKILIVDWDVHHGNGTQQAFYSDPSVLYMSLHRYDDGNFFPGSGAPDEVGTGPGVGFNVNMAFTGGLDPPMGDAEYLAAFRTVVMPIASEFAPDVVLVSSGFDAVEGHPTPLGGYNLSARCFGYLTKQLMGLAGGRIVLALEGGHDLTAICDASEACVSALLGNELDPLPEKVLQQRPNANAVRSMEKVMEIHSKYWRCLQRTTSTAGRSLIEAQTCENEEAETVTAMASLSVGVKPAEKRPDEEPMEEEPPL
Chain of Vascular endothelial growth factor receptor 3 (P35916 whole entry): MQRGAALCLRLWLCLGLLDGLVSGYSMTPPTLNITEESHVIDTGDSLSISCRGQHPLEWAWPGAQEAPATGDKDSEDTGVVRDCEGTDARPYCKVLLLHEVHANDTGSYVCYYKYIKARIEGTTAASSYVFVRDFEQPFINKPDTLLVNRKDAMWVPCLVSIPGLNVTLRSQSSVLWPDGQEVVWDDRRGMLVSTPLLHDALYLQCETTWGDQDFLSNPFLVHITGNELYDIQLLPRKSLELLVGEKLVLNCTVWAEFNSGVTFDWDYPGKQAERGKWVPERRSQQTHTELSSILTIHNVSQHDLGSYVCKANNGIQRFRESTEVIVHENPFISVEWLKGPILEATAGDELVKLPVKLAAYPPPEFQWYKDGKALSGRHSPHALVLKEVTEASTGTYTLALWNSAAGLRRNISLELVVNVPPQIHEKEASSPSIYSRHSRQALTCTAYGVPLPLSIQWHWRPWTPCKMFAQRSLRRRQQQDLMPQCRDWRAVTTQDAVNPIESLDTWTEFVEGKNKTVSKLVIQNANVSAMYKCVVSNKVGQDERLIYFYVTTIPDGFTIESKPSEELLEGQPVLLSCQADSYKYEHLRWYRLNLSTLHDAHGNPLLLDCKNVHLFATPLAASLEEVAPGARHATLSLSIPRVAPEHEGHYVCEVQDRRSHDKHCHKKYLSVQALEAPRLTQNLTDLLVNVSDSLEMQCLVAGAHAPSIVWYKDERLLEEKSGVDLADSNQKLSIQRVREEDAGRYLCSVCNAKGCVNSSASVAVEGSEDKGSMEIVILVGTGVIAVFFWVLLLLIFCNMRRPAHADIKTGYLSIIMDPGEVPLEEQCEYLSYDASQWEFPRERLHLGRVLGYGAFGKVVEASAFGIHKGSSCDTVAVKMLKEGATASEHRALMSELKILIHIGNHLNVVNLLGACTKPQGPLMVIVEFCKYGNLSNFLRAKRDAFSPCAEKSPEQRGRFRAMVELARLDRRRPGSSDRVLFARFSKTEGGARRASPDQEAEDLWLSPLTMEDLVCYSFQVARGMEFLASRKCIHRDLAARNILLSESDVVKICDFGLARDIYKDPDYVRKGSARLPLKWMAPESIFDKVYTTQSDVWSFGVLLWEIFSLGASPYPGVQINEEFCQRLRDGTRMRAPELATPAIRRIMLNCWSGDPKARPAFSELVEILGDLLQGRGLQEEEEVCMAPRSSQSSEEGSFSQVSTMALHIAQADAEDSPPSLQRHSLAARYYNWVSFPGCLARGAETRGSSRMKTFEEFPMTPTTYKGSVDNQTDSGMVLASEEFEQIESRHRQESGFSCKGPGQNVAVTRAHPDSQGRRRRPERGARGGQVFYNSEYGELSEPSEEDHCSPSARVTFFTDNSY
Chain of Vascular endothelial growth factor receptor 1 (P17948 whole entry): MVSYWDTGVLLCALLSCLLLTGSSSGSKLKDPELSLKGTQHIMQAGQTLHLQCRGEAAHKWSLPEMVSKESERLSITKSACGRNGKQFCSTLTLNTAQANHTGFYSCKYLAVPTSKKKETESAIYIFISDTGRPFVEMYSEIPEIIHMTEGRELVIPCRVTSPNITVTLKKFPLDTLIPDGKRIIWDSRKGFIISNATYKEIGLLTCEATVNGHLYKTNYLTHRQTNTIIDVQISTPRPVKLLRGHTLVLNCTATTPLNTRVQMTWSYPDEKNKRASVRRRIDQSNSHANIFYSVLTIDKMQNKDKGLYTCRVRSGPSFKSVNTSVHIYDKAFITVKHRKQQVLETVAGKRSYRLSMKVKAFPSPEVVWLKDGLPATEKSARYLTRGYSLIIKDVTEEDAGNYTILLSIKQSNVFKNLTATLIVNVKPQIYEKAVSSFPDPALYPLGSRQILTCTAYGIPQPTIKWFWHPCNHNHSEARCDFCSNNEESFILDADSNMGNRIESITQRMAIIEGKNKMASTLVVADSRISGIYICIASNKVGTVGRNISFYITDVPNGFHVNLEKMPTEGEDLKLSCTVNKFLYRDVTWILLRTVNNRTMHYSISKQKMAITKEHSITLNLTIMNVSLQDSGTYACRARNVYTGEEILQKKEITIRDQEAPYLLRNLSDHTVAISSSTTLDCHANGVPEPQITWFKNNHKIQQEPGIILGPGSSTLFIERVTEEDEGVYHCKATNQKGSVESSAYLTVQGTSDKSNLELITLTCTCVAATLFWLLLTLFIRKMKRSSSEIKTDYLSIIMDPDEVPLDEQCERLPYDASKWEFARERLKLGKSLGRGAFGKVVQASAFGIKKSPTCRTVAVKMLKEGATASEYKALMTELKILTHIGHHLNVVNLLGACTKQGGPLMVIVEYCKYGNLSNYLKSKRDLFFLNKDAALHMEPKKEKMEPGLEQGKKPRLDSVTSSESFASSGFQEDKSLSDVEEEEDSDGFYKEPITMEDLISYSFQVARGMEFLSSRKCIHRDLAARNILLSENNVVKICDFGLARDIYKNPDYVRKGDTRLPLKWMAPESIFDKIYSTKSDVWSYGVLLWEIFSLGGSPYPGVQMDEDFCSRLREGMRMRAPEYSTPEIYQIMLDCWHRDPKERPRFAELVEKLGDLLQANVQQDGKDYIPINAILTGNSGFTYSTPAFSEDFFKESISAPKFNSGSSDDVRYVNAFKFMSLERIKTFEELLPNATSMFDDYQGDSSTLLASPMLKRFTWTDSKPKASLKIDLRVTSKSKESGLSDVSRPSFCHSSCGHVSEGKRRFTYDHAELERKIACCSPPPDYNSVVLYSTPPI

The term IC50 denotes the point on the concentration scale where inhibition reaches its midpoint. With `O=C(NC1=NN2C(=O)/C(=C/c3ccco3)N=C2S1)c1cccs1`, the IC50 in the data set with PC-3 came to 8.01 µM; with HepG2 [1], 6.8 µM; in the data set with MCF7 [2] it was 4.36 µM; in the data set on HCT-116 [3], 5.26 µM; in data set [4], 9.4 µM.

`COc1ccc(-c2cc3c(ccn4nc(-c5cccnc5)nc34)o2)cc1`: the IC50 in data set [5] and in data set [7] was 38.7 µM throughout. In addition, the IC50 at 72 h in data set [6] turned out to be 17.4 µM.

In the case of `Cc1cc(Oc2ncnc3sc4c(c23)CCCCC4)ccc1Cl`, the concentration for half-maximal inhibition (IC50) in the data set with MCF7 [8] came out at 0.66 µM.

On to `Cc1c2ccc(N(C)c3ccnc(Nc4ccc(C(=O)Nc5ccccc5N)cc4)n3)cc2nn1C`, for which the IC50 at Histone deacetylase 4 is over 10 µM.

On to `Cc1cc(C)nc(NS(=O)(=O)c2ccc(NN=C3C(=O)NNC3=O)cc2)n1`, for which the IC50 was 0.14 µM in data set [9], 10.6 µM in the data set on MCF7 [10], 9.66 µM in the data set on HCT-116 [12] and 6.43 µM in the data set with HepG2 [13]. In data set [11], the IC50 at 24 h came to 39.4 µM.

Turning to `Cc1c2ccc(Nc3ccnc(Nc4ccc(NC(=O)CCCCCCC(=O)NO)cc4)n3)cc2nn1C`, the IC50 is 0.12 µM on Histone deacetylase 1; 0.094 µM in [14]; 0.054 µM in [15]; 0.018 µM in data set [16]; 0.016 µM in data set [4]; over 10 µM against Histone deacetylase 4.

As for `CCCNNC(=O)c1ccc(Nc2nccc(N(C)c3ccc4c(C)n(C)nc4c3)n2)cc1`, the half-inhibitory concentration (IC50) was 8.96 µM in data set [14], 0.037 µM in data set [15], 0.034 µM in [16] and over 10 µM against Histone deacetylase 4.

In the case of `COc1ccc(-n2c(SCC(=O)Nc3ccc(-c4nc5ccccc5[nH]4)cc3)nc3ccccc3c2=O)cc1`, the IC50 was over 100 µM in data set [17], over 100 µM in data set [18] and 20.6 µM in [19].

Turning to `COc1ccc(-c2nc3c4cc(-c5ccc(OC)cc5)oc4ccn3n2)cc1`, the IC50 in [5] and in data set [7] was 58 µM each time. Also, in data set [6], the 50% inhibitory concentration (IC50) at 72 h was determined as 22.6 µM.

As to `CNC(=O)c1nc(Nc2ccc(NC(=O)Nc3cccc(C)c3)cc2)c2ccccc2n1`, the IC50 in data set [20] worked out at 0.0121 µM.

As to `Cc1ccc(/C=N/n2c(-c3cc4ccccc4[nH]3)n[nH]c2=S)cc1`, the IC50 turned out to be 7.36 µM in the data set with A498 and 6.28 µM with CAKI-1.

Regarding `CCOC(=O)/C(C#N)=C(\c1ccc(O)cc1)N1CC(=O)N(/N=C(\C)c2ccc(O)cc2O)C1=S`, the IC50 with MCF7 [8] was determined as 1.63 µM; in the data set with HepG2 [21] it was 2.44 µM; with A549, 1.27 µM; in data set [22], 11.4 µM.

In turn, `CCNC(=S)NS(=O)(=O)c1ccc(NC(=O)CSc2cc3ccccc3c(=O)n2CC)cc1` returned an IC50 in [7] of 3.1 µM.

The values are drawn from ChEMBL document CHEMBL5500383, “Recent advances and future directions on small molecule VEGFR inhibitors in oncological conditions” (Eur J Med Chem, 2024).
